In patent publication US20240025862A1, “SUBSTITUTED N-PHENYLURACILS AND SALTS THEREOF, AND USE THEREOF AS HERBICIDAL ACTIVE SUBSTANCES” (Bayer Aktiengesellschaft, priority 2020, published 2024):

Assays:
Type in all cases: in vivo
[1] = system: Abutilon theophrasti (ABUTH); assay: Post-emergence herbicidal action, greenhouse pot test; conditions: rated visually after about 3 weeks vs untreated controls, 100% = plants have died
Procedure, shortened: (§1)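 Greenhouse-grown weeds in sandy loam were sprayed post-emergence at the one-leaf stage, 2–3 weeks after sowing. Compounds were formulated as WP or EC in water with 0.5% additive at 600 l/ha, at rates of 20 g/ha or less. Visual rating after about 3 weeks used a scale from 0% (like untreated control) to 100% (plants dead).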

Veronica persica (VERPE) = assay: as above
Procedure, shortened: as §1

Viola tricolor (VIOTR) = assay: as above
Procedure, shortened: as §1

[2] = system: Amaranthus retroflexus (AMARE); assay: as above; conditions: rated visually after about 3 weeks vs untreated controls, 100% = plants have died
Procedure, shortened: as §1

Avena fatua (AVEFA) = assay: as above; conditions: rated visually after about 3 weeks vs untreated controls, 100% = plants have died
Procedure, shortened: as §1

[3] = system: Pharbitis purpurea (PHBPU); assay: as above
Procedure, shortened: as §1

[4] = system: Polygonum convolvulus (POLCO); assay: as above; conditions: dosage 20 g/ha
Procedure, shortened: as §1

Oryza sativa (ORYSA) = assay: Post-emergence crop plant compatibility, greenhouse pot test (also comparative test C); conditions: for Post-emergence action against ORYSA (crop plant compatibility): vs untreated controls
Procedure, shortened: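 Rice and other crops sprayed post-emergence at one-leaf stage (2–3 weeks after sowing) with WP or EC formulations plus 0.5% additive at 600 l/ha water. Visual rating about 3 weeks later versus untreated controls (100% = dead, 0% = like control); suffixes a–c denote different doses.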

[5] = system: Triticum aestivum (TRZAS); assay: Post-emergence crop plant compatibility, greenhouse pot test; conditions: vs untreated controls
Procedure, shortened: (§2)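 Greenhouse-grown crop plants sprayed post-emergence at the one-leaf stage with WP or EC formulations plus 0.5% additive, at 600 l/ha water. Damage rated visually after about 3 weeks versus untreated controls (0% = like control, 100% = dead); suffixes a/b/c denote different dosages.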

Zea mays (ZEAMX) = assay: as above; conditions: vs untreated controls
Procedure, shortened: as §2

Glycine max (GLXMA) = assay: as above; conditions: 1.25 g/ha
Procedure, shortened: as §2

[6] = system: Matricaria inodora (MATIN); assay: Post-emergence herbicidal action, greenhouse pot test (also comparative test C)
Procedure, shortened: (§3)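 Greenhouse pot plants in sandy loam were sprayed post-emergence at the one-leaf stage (2–3 weeks after sowing) with WP or EC formulations plus 0.5% additive at 600 l/ha water. Activity was rated visually after about 3 weeks versus untreated controls (100% = dead, 0% = like control); rates were 20 g/ha or less, and 5 g/ha or less in the comparative test.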

Setaria viridis (SETVI) = assay: as above
Procedure, shortened: as §3

[7] = system: Echinochloa crus-galli (ECHCG); assay: as above
Procedure, shortened: as §3

[8] = system: Alopecurus myosuroides (ALOMY); assay: as above; conditions: rated visually after about 3 weeks vs untreated controls, 100% = plants have died
Procedure, shortened: as §3

**Q.** With Cn1c(C(F)(F)F)cc(=O)n(-c2cc(Oc3ccccc3OCC(=O)OCc3ccccn3)c(C#N)cc2F)c1=O [I.9-276] as the compound, how does the “Post-emergence action at 1.25 g/ha against ABUTH in %” value ([1]; 1.25 g/ha) read?
**A.** 100%

**Q.** What about the “Post-emergence action at 5 g/ha against ABUTH in %” value ([1]; 5 g/ha) of the same compound?
**A.** 100%

**Q.** What about the “Post-emergence action at 20 g/ha against ABUTH in %” value ([1]; 20 g/ha) of the same compound?
**A.** 100%

**Q.** And the “Post-emergence action against VERPE” value (Veronica persica (VERPE); 1.25 g/ha)?
**A.** 80%

**Q.** And the “Post-emergence action against VERPE” value (Veronica persica (VERPE); 5 g/ha)?
**A.** 100%

**Q.** And the “Post-emergence action against VERPE” value (Veronica persica (VERPE); 20 g/ha)?
**A.** 100%

**Q.** What about the “Post-emergence action against VIOTR” value (Viola tricolor (VIOTR); 1.25 g/ha) of the same compound?
**A.** 100%

**Q.** What about the “Post-emergence action against VIOTR” value (Viola tricolor (VIOTR); 5 g/ha) of the same compound?
**A.** 100%

**Q.** What about the “Post-emergence action against VIOTR” value (Viola tricolor (VIOTR); 20 g/ha) of the same compound?
**A.** 100%

**Q.** And the “Post-emergence action at 1.25 g/ha against AMARE in %” value ([2]; 1.25 g/ha)?
**A.** 100%

**Q.** What about the “Post-emergence action at 5 g/ha against AMARE in %” value ([2]; 5 g/ha) of the same compound?
**A.** 100%

**Q.** And the “Post-emergence action at 20 g/ha against AMARE in %” value ([2]; 20 g/ha)?
**A.** 100%

**Q.** And the “Post-emergence action at 5 g/ha against AVEFA in %” value (Avena fatua (AVEFA))?
**A.** 80%

**Q.** And the “Post-emergence action at 20 g/ha against AVEFA in %” value (Avena fatua (AVEFA); 20 g/ha)?
**A.** 90%

**Q.** What about the “Post-emergence action against PHBPU in %” value ([3]; dosage 1.25 g/ha) of the same compound?
**A.** 100%

**Q.** And the “Post-emergence action against PHBPU in %” value ([3]; dosage 5 g/ha)?
**A.** 100%

**Q.** And the “Post-emergence action against PHBPU in %” value ([3]; dosage 20 g/ha)?
**A.** 100%

**Q.** What about the “Post-emergence action against POLCO in %” value [4] of the same compound?
**A.** 100%

**Q.** What about the “Post-emergence action against ORYSA (crop plant compatibility)” value (Oryza sativa (ORYSA); 1.25 g/ha) of the same compound?
**A.** 0%

**Q.** What about the “Post-emergence action against ORYSA (crop plant compatibility)” value (Oryza sativa (ORYSA); 5 g/ha) of the same compound?
**A.** 0%

**Q.** What about the “Post-emergence action against ORYSA in %” value (Oryza sativa (ORYSA); 20 g/ha, crop plant compatibility) of the same compound?
**A.** 0%

**Q.** And the “Post-emergence action against TRZAS (crop plant compatibility)” value ([5]; 1.25 g/ha)?
**A.** 0%

**Q.** What about the “Post-emergence action against ZEAMX (crop plant compatibility)” value (from here on “Post-emergence action against ZEAMX”) (Zea mays (ZEAMX); 1.25 g/ha) of the same compound?
**A.** 0%

**Q.** And the “Post-emergence action against ZEAMX” value (Zea mays (ZEAMX); 5 g/ha)?
**A.** 0%

**Q.** What about the “Post-emergence action against ZEAMX” value (Zea mays (ZEAMX); 20 g/ha) of the same compound?
**A.** 20%

**Q.** And the “Post-emergence action against GLXMA in %” value (Glycine max (GLXMA))?
**A.** 0%

**Q.** What about the “Post-emergence action against MATIN in %” value ([6]; dosage 5 g/ha) of the same compound?
**A.** 100%

**Q.** And the “Post-emergence action against MATIN in %” value ([6]; dosage 20 g/ha)?
**A.** 100%

**Q.** What about the “Post-emergence action against SETVI” value (Setaria viridis (SETVI); 20 g/ha) of the same compound?
**A.** 100%

**Q.** What about the “Post-emergence action against SETVI in %” value (Setaria viridis (SETVI); dosage 1.25 g/ha) of the same compound?
**A.** 100%

**Q.** And the “Post-emergence action against SETVI in %” value (Setaria viridis (SETVI); dosage 5 g/ha)?
**A.** 100%

**Q.** What about the “Post-emergence action against ECHCG in %” value ([7]; dosage 5 g/ha) of the same compound?
**A.** 100%

**Q.** What about the “Post-emergence action against ECHCG in %” value ([7]; dosage 20 g/ha) of the same compound?
**A.** 100%

**Q.** And the “Post-emergence action at 5 g/ha against ALOMY in %” value ([8]; 5 g/ha)?
**A.** 100%

**Q.** And the “Post-emergence action at 20 g/ha against ALOMY in %” value ([8]; 20 g/ha)?
**A.** 100%

**Q.** Which results are given for Cn1c(C(F)(F)F)cc(=O)n(-c2cc(Oc3ccccc3OCC(=O)OCC#N)c(C#N)cc2F)c1=O [I.9-176, Cyanomethyl (2-{2-cyano-4-fluoro-5-[3-methyl-2,6-dioxo-4-(trifluoromethyl)-3,6-dihydropyrimidin-1(2H)-yl]phenoxy}phenoxy)acetate]?
**A.** pest or weed control at 1.25 g/ha ([1]; Abutilon theophrasti, 504 h, 1.25 g/ha, read-out: Post-emergence action at 1.25 g/ha against ABUTH in %): 100%; pest or weed control at 5 g/ha ([1]; Abutilon theophrasti, 504 h, 5 g/ha, read-out: Post-emergence action at 5 g/ha against ABUTH in %): 100%; pest or weed control at 20 g/ha ([1]; Abutilon theophrasti, 504 h, 20 g/ha, read-out: Post-emergence action at 20 g/ha against ABUTH in %): 100%; pest or weed control at 1.25 g/ha (Veronica persica (VERPE); Veronica persica, 504 h, 1.25 g/ha, read-out: Post-emergence action against VERPE): 100%; pest or weed control at 5 g/ha (Veronica persica (VERPE); Veronica persica, 504 h, 5 g/ha, read-out: Post-emergence action against VERPE): 100%; pest or weed control at 20 g/ha (Veronica persica (VERPE); Veronica persica, 504 h, 20 g/ha, read-out: Post-emergence action against VERPE): 100%; pest or weed control at 1.25 g/ha (Viola tricolor (VIOTR); Viola tricolor, 504 h, 1.25 g/ha, read-out: Post-emergence action against VIOTR): 100%; pest or weed control at 5 g/ha (Viola tricolor (VIOTR); Viola tricolor, 504 h, 5 g/ha, read-out: Post-emergence action against VIOTR): 100%; pest or weed control at 20 g/ha (Viola tricolor (VIOTR); Viola tricolor, 504 h, 20 g/ha, read-out: Post-emergence action against VIOTR): 100%; pest or weed control at 1.25 g/ha ([2]; Amaranthus retroflexus, 504 h, 1.25 g/ha, read-out: Post-emergence action at 1.25 g/ha against AMARE in %): 100%; pest or weed control at 5 g/ha ([2]; Amaranthus retroflexus, 504 h, 5 g/ha, read-out: Post-emergence action at 5 g/ha against AMARE in %): 100%; pest or weed control at 20 g/ha ([2]; Amaranthus retroflexus, 504 h, 20 g/ha, read-out: Post-emergence action at 20 g/ha against AMARE in %): 100%; Post-emergence action at 5 g/ha against AVEFA in % (Avena fatua (AVEFA)): 80%; pest or weed control at 20 g/ha (Avena fatua (AVEFA); Avena fatua, 504 h, 20 g/ha, read-out: Post-emergence action at 20 g/ha against AVEFA in %): 80%; pest or weed control at 5 g/ha ([3]; Ipomoea purpurea, 504 h, dosage 5 g/ha, read-out: Post-emergence action against PHBPU in %): 100%; pest or weed control at 20 g/ha ([3]; Ipomoea purpurea, 504 h, dosage 20 g/ha, read-out: Post-emergence action against PHBPU in %): 100%; pest or weed control at 20 g/ha ([4]; Fallopia convolvulus, 504 h, read-out: Post-emergence action against POLCO in %): 100%; Post-emergence action against ORYSA (crop plant compatibility) (Oryza sativa (ORYSA); 1.25 g/ha): 0%; Post-emergence action against ORYSA (crop plant compatibility) (Oryza sativa (ORYSA); 5 g/ha): 20%; Post-emergence action against TRZAS (crop plant compatibility) ([5]; 1.25 g/ha): 0%; Post-emergence action against TRZAS (crop plant compatibility) ([5]; 5 g/ha): 20%; Post-emergence action against ZEAMX (crop plant compatibility) (Zea mays (ZEAMX); 1.25 g/ha): 0%; pest or weed control at 5 g/ha ([6]; Tripleurospermum inodorum, 504 h, dosage 5 g/ha, read-out: Post-emergence action against MATIN in %): 100%; pest or weed control at 20 g/ha ([6]; Tripleurospermum inodorum, 504 h, dosage 20 g/ha, read-out: Post-emergence action against MATIN in %): 100%; pest or weed control at 20 g/ha (Setaria viridis (SETVI); Setaria viridis, 504 h, 20 g/ha, read-out: Post-emergence action against SETVI): 100%; pest or weed control at 1.25 g/ha (Setaria viridis (SETVI); Setaria viridis, 504 h, dosage 1.25 g/ha, read-out: Post-emergence action against SETVI in %): 100%; pest or weed control at 5 g/ha (Setaria viridis (SETVI); Setaria viridis, 504 h, dosage 5 g/ha, read-out: Post-emergence action against SETVI in %): 100%; Post-emergence action at 1.25 g/ha against ECHCG in % ([7]; 1.25 g/ha, rated visually after about 3 weeks vs untreated controls, 100% = plants have died): 100%; pest or weed control at 5 g/ha ([7]; Echinochloa crus-galli, 504 h, dosage 5 g/ha, read-out: Post-emergence action against ECHCG in %): 100%; pest or weed control at 20 g/ha ([7]; Echinochloa crus-galli, 504 h, dosage 20 g/ha, read-out: Post-emergence action against ECHCG in %): 100%; pest or weed control at 5 g/ha ([8]; Alopecurus myosuroides, 504 h, 5 g/ha, read-out: Post-emergence action at 5 g/ha against ALOMY in %): 100%; pest or weed control at 20 g/ha ([8]; Alopecurus myosuroides, 504 h, 20 g/ha, read-out: Post-emergence action at 20 g/ha against ALOMY in %): 100%
